Patent US20020016370A1 (priority 1998, published 2002)
Where two headings read alike, the source gives them in different places.

Legend:
[1] = target: T1, NMDA receptor subunits NR1 and NR2b (Homo sapiens, UniProt Q05586+Q13224); experiment: Oocytes coexpressing NMDA receptor subunits; type: cell-based; conditions: 100 μM
T1 construct: expressed in transfected cells; host or cells: Xenopus oocytes
Excerpt: NR1 is ubiquitous in the brain and produces robust functional responses when coexpressed with the NR2b subunit and activated by glutamate and the coagonist glycine. NR2b in vivo is selectively present in the forebrain with high levels of expression in the cerebral cortex and hippocampus, as well as the septum, caudate putamen and olfactory bulb, making the combination of NR2b and NR1 relevant for both cognitive and motor functions in the CNS.

Male Sprague-Dawley rats [2] = experiment: Mecamylamine blockade of nicotine-induced seizures; type: in vivo, rat
Male Sprague-Dawley rats [3] = experiment: Effects of mecamylamine alone at high dose (seizures, spontaneous locomotor activity); type: in vivo, rat; conditions: 10 mg/kg s.c.
nicotine receptors = experiment: Oocyte recovery time course and agonist tests, receptor subtype not specified; type: cell-based
[4] = target: T2, α1β1δε mouse muscle receptors (Mus musculus, UniProt P02716+P04756+P09690+P20782); conditions: stated as a finding in the discussion; cited from earlier work
T2 sequence (P04756 21-457): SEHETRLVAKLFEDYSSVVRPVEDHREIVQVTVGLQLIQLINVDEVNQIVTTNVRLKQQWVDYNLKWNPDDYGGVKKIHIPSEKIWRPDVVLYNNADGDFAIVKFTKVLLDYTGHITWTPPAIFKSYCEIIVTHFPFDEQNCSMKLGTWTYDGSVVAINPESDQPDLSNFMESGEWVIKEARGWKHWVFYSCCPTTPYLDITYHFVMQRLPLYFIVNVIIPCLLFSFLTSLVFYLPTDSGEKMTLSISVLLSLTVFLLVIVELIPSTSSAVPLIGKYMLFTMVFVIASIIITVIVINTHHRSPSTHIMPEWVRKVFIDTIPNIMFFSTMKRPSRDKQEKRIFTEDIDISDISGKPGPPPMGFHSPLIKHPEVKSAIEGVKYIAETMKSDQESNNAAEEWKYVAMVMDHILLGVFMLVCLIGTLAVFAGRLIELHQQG
T2 sequence (P09690 24-501): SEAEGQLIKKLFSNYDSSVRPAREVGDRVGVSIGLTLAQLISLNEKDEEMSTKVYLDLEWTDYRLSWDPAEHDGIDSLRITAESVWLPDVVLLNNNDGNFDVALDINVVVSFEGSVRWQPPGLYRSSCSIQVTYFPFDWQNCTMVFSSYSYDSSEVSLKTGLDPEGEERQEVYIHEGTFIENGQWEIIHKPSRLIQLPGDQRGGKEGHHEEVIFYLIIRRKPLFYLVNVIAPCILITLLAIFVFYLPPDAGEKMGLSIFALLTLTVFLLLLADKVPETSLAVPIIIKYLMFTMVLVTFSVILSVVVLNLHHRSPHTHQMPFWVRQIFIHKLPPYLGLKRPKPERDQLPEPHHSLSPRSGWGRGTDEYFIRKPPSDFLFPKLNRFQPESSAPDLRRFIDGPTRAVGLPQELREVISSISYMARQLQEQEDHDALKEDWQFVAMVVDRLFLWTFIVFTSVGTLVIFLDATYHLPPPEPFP
T2 sequence (P02716 25-520): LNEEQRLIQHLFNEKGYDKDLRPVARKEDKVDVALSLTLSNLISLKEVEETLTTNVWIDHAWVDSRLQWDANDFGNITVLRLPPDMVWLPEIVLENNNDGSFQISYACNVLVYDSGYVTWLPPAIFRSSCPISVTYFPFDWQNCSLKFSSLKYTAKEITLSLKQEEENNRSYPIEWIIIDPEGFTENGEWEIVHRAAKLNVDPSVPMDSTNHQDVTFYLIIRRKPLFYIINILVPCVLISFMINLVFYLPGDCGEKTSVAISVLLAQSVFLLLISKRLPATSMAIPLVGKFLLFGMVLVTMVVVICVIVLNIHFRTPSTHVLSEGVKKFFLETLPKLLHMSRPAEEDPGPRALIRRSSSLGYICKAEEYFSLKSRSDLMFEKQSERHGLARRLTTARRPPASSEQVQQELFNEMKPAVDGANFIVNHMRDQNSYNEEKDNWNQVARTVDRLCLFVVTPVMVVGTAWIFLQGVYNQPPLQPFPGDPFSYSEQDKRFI
T2 sequence (P20782 21-493): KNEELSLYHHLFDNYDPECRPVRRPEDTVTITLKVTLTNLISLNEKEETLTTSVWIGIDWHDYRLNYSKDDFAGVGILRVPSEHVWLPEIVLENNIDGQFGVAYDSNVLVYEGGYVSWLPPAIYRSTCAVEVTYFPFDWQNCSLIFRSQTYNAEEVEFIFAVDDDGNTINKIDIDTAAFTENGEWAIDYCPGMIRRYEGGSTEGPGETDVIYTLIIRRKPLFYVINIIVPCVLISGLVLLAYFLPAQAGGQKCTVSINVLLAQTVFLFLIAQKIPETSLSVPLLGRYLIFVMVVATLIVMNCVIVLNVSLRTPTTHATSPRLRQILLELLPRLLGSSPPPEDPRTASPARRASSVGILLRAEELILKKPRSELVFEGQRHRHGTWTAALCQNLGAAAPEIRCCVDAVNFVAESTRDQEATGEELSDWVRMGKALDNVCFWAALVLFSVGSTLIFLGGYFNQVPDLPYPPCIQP

[5] = test system: vagotomized, pithed and artificially respired rats; experiment: Pithed rat: cardiovascular responses to sympathetic nerve stimulation; type: in vivo; conditions: for increases in heart rate (δ HR): 2.2 Hz, highest dose, versus saline; for stimulation-induced increases in MAP: stimulation at 0.8 and 2.2 Hz, i.v. bolus
[6] = test system: vagotomized, pithed and artificially respired rats; experiment: Pithed rat: plasma catecholamine responses to sympathetic nerve stimulation; type: in vivo; conditions: for change of plasma DA levels on sympathetic stimulation: from baseline
mice = conditions: cited from earlier work
[7] = target: T2, α1β1δε mouse muscle receptors; experiment: Selectivity test on muscle receptors in oocytes; type: cell-based
Procedure: For electrophysiology, oocyte recordings were made with an oocyte amplifier (e.g., Warner Instruments, Hamden, Conn., No. OC-725C) and recording chamber. […] A Mariotte flask filled with Ringer's solution was used to maintain a constant hydrostatic pressure for drug delivery and washes. Drugs were diluted in perfusion solution and loaded into a 2 ml loop at the terminus of the perfusion line. A bypass of the drug-loading loop allowed bath solution to flow continuously while the drug loop was loaded. The drug application was synchronized with data acquisition by using a 2-way electronic valve. […] Voltage electrodes were filled with 3M KCl and have resistances of 1-3MΩ. Oocytes with resting membrane potentials more positive than -30 mV were not used. […] All drug applications were separated by at least a 5 min wash period, longer if there is persisting drug effect. At the start of recording, all oocytes received two initial control applications of ACh. The second application of control ACh minimized the effects of rundown that occasionally occur after an initial ACh response. The second application of ACh also was used to normalize for the level of channel expression in each oocyte. To determine residual inhibitory effects, application of ACh with inhibitor or inhibitor alone was followed by another application of ACh alone and compared to the pre-application control ACh response. […]

[8] = target: hSERT (serotonin transporter) (Homo sapiens, UniProt P31645); experiment: [125]RTI-55 binding, HEK293 cell membranes; conditions: HEK-hSERT membranes
human α4β2 receptors = target: T3, human α4β2 receptors (Homo sapiens, UniProt P17787+P43681); experiment: Two-electrode voltage clamp, receptors expressed in Xenopus oocytes; type: cell-based
T3 construct: expressed in transfected cells; host or cells: Xenopus laevis oocytes injected with cRNA

[9] = target: hNET (norepinephrine transporter) (Homo sapiens, UniProt P23975); experiment: [125]RTI-55 binding, HEK293 cell membranes; conditions: HEK-hNET membranes
human α3β4 receptors = target: T4, human α3β4 receptors (Homo sapiens, UniProt P30926+P32297); experiment: Two-electrode voltage clamp, receptors expressed in Xenopus oocytes; type: cell-based
T4 construct: expressed in transfected cells; host or cells: Xenopus laevis oocytes injected with cRNA
T4 sequence (P32297 32-505): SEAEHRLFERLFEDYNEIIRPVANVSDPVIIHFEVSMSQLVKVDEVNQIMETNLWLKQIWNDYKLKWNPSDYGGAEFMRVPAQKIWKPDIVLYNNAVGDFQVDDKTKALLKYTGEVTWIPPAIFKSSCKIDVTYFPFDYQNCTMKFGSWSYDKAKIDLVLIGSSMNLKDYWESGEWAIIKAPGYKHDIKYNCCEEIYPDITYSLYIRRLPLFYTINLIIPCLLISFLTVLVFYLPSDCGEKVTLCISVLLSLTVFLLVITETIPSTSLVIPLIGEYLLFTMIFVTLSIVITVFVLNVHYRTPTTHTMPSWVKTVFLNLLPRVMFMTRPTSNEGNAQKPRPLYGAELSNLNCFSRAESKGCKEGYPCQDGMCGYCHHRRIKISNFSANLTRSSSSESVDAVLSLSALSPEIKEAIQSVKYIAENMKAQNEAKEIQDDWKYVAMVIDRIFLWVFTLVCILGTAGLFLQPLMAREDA
T4 sequence (P30926 22-498): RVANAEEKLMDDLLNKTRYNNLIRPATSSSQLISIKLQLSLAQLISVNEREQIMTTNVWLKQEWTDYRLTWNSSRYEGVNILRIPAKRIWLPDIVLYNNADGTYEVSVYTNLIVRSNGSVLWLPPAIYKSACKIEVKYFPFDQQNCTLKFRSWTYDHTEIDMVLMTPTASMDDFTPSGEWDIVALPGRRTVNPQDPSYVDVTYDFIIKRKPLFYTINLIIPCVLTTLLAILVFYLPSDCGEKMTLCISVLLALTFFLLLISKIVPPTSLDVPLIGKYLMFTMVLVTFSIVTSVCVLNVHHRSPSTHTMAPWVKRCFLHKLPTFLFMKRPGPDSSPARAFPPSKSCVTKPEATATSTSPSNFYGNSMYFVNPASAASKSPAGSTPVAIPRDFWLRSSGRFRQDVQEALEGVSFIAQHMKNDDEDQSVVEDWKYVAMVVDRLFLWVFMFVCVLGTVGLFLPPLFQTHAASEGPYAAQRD

human α3β2 receptors = target: T5, human α3β2 receptors (Homo sapiens, UniProt P17787+P32297); experiment: as above; type: cell-based; conditions: β2-containing receptors
T5 construct: expressed in transfected cells; host or cells: Xenopus laevis oocytes injected with cRNA

[10] = target: hDAT (dopamine transporter) (Homo sapiens, UniProt Q01959); experiment: [125]RTI-55 binding, HEK293 cell membranes; conditions: HEK-hDAT membranes
[11] = test system: Sprague-Dawley derived rats; experiment: Prevention of sensitized locomotor stimulant response to nicotine; type: in vivo, rat; conditions: pretreatment 7 days before nicotine; test on day 9
male Swiss-Webster mice [12] = experiment: Locomotor depression test; type: in vivo, mouse
human α7 receptors = target: T6, human α7 receptors (Homo sapiens, UniProt P36544); experiment: Two-electrode voltage clamp, receptors expressed in Xenopus oocytes; type: cell-based
T6 construct: expressed in transfected cells; host or cells: Xenopus laevis oocytes injected with cRNA
T6 sequence (P36544 23-502): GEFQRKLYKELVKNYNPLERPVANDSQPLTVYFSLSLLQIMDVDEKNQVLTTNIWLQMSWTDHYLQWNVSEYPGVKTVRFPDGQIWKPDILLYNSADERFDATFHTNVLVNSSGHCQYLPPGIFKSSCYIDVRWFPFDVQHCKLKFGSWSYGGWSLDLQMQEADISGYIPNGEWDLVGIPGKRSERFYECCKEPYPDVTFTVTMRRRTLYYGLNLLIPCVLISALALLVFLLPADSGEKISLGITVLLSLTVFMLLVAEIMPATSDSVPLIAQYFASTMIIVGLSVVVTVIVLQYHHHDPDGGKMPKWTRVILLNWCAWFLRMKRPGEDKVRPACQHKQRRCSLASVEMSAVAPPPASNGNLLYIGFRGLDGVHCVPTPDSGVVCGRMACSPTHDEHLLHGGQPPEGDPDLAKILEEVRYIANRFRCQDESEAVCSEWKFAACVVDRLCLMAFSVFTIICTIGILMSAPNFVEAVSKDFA

male Swiss-Webster mice [13] = experiment: Cocaine interaction study (locomotor activity); type: in vivo, mouse; conditions: 10 mg/kg ip plus cocaine 20 mg/kg, at 30 minutes
rats = conditions: mecamylamine 0.1-1 mg/day, ip; cited from earlier work
TS patients = conditions: Tourette's syndrome; cited from earlier work

T1 sequence (Q13224 27-1484, other chains not shown): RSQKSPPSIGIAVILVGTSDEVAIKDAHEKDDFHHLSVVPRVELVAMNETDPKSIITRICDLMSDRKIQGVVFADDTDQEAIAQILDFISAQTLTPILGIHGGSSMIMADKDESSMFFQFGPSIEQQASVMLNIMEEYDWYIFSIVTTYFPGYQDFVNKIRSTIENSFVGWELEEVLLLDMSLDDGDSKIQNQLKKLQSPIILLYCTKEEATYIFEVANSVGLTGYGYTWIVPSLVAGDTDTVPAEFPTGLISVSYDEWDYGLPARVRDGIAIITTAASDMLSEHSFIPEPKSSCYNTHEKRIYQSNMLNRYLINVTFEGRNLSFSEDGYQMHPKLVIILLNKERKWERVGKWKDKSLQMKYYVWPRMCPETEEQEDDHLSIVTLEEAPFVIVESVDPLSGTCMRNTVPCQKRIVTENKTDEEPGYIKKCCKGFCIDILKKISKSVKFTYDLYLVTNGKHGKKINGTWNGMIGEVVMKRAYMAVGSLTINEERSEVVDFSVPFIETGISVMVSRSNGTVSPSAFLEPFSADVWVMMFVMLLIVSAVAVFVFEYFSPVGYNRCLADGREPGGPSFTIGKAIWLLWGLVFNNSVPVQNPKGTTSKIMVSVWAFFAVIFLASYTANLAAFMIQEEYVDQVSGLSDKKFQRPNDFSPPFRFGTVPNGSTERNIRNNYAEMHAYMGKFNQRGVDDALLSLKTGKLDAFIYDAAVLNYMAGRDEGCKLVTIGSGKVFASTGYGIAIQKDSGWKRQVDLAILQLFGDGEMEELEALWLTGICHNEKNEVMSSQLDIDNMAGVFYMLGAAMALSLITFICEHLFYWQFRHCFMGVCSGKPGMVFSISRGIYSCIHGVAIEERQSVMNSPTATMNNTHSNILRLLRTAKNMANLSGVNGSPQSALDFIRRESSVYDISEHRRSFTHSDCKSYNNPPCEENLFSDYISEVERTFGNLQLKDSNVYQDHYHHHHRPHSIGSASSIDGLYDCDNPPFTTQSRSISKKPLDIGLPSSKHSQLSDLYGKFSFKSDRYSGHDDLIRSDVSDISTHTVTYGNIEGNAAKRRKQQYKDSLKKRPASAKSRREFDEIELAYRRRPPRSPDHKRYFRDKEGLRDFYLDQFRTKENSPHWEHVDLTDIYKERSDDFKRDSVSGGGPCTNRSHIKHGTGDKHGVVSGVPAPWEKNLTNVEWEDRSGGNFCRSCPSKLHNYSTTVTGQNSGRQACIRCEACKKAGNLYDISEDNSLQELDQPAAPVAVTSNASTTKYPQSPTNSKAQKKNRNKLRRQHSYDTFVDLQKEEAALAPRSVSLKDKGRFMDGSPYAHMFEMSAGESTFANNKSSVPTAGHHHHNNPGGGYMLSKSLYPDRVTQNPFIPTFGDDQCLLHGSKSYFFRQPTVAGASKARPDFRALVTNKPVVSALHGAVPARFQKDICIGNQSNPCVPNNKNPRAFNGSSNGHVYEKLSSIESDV

## CN[C@@]1(C)[C@@H]2CC[C@@H](C2)C1(C)C [exo-S-mecamylamine]
[1]
  inhibition of response to 10 μM glutamate+10 μM glycine: transient inhibition
  reversibility after a 5-min wash: reversible
Male Sprague-Dawley rats [2]; 0.1 mg/kg s.c.
  duration and severity of seizure versus saline (FIG. 6C): significantly different from their saline comparison groups
  seizure latency versus saline comparison groups: significantly longer seizure latency
Male Sprague-Dawley rats [2]; lowest dose 0.1 mg/kg
  number of rats with nicotine-seizures compared to exo-R-mecamylamine: fewer rats had nicotine-seizures
Male Sprague-Dawley rats [3]
  locomotor depressant effects compared to exo-R-mecamylamine: significantly less locomotor depressant effects
Nicotine receptors; co-application of 10 μM and ACh at the control concentration
  initial inhibition: greater than 50%
Nicotine receptors; recovery time course
  off-loading from some receptors compared to exo-R-mecamylamine: more slowly
[4]
  inhibitory effect at nAChR muscle receptors compared to exo-R-mecamylamine: less inhibitory effect
[5]
  increases in heart rate (δ HR): significantly lowered the increases in heart rate
  stimulation-induced increases in MAP: completely abolished
[6]; 2.2 Hz
  stimulation-induced increases in plasma NE levels versus saline: significantly decreased stimulation-evoked plasma NE increases
  stimulation-induced plasma EPI responses: significant decrease
  change of plasma DA levels on sympathetic stimulation: not
[6]; among the three forms
  overall effectiveness on plasma CA and sympathetically-mediated cardiovascular responses: the most effective in reducing plasma CA

## CN1[C@@H]2CC[C@H]1C[C@@H](OC(=O)C(CO)c1ccccc1)C2 (some centres unmarked) [atropine]
mice; mouse, in vivo
  effect against psychostimulant-induced stereotypy in naive animals: ineffective

## CN[C@]1(C)[C@H]2CC[C@H](C2)C1(C)C [exo-R-mecamylamine]
[7]
  effect on muscle receptors: very little effect
  inhibition of muscle receptors after a 5-min wash: fully reversed
Male Sprague-Dawley rats [2]; 0.1 mg/kg s.c.
  duration and severity of seizure versus saline (FIG. 6C): did not differ from their saline comparison group
[8]
  affinity compared to cocaine: lower than the affinity of cocaine
Human α4β2 receptors; 5 μM, −40 mV or 90 mV
  voltage dependence of inhibition / off rate: significant voltage effects
Human α4β2 receptors; β2-containing receptors
  residual inhibition, compared across receptors: greatest
[9]
  affinity compared to cocaine: lower than the affinity of cocaine
Human α3β4 receptors
  subsequent control response to ACh 5 min after exposure (residual inhibition): marked decrease
Human α3β4 receptors; no further recovery afterwards
  fast phase of recovery, average duration: 12 min
Human α3β2 receptors
  residual inhibition, compared across receptors: greatest
[5]
  increases in heart rate (δ HR): significantly lowered the increases in heart rate
  stimulation-induced increases in MAP: completely abolished
[6]; 2.2 Hz
  stimulation-induced increases in plasma NE levels versus saline: significantly less
  change of plasma DA levels on sympathetic stimulation: significant increases in plasma DA levels
[10]
  affinity compared to cocaine: lower than the affinity of cocaine
[11]
  effectiveness compared between isomers, particularly center distance and vertical activity: generally more effective at lower doses
Male Swiss-Webster mice [12]; 10 mg/kg ip, last 30 minutes of testing
  stimulant effects: evident
Male Swiss-Webster mice [12]; ip, 20 min before testing, maximal depression is 0 counts in 30 minutes
  dose producing one half of the maximal depressant activity: 9.3 mg/kg
Human α7 receptors
  potency of inhibition, comparing the IC50 values across receptors: least potent
  residual inhibition, compared across receptors: least
Male Swiss-Webster mice [13]
  locomotion versus cocaine alone: significantly lower

## C[N+](C)(C)CCCCCC[N+](C)(C)C [hexamethonium]
rats
  block of nicotine-induced locomotor hyperactivity and tail tremor: not

## O=C(CCCN1CCC(O)(c2ccc(Cl)cc2)CC1)c1ccc(F)cc1 [haloperidol]
TS patients
  cases in which effective: about 70%

## CO[C@H]1CC=C2CCN3CCC4=C(CC(=O)OC4)[C@]23C1 [dihydro-beta-erythroidine]
mice; systemic administration
  effect against psychostimulant-induced stereotypy in naive animals: ineffective

## Clc1cccc(Cl)c1N=C1NCCN1 [clonidine]
TS patients
  success rate for motor and vocal tics: 40%
